Our source for the IC50 values is ChEMBL document CHEMBL3351429, “Phenyl substituted 4-hydroxypyridazin-3(2H)-ones and 5-hydroxypyrimidin-4(3H)-ones: inhibitors of influenza A endonuclease” (J Med Chem, 2014).

SMILES strings stand for the structures.

This assay is described as follows: Inhibition of influenza A virus H1N1 endonuclease (1 to 204 residues) expressed in Escherichia coli BL21 (RIL) using (6-FAM)-TGGCAATATCAGCTCCACA(MGBNFQ) single-stranded DNA probe by fluorimetry.
Broadly, the IC50 is the concentration that inhibits the measured activity by half. A higher IC50 goes with weaker potency. The compound `O=c1[nH]c(-c2ccccc2F)ncc1O` gave an IC50 of 1.67 µM. The same measure for `O=c1[nH]ncc(-c2ccc(F)cc2)c1O`: 177 µM; for `N#Cc1ccc(-c2cc(O)c(=O)[nH]n2)cc1`: 9.3 µM. The figure for `O=c1[nH]c(-c2cccc(F)c2)ncc1O` is 1.56 µM; for `N#Cc1ccc(-c2ncc(O)c(=O)[nH]2)cc1` it is 0.52 µM. `O=c1[nH]c(-c2cccc(-c3nnn[nH]3)c2)ncc1O` registered an IC50 of 0.48 µM.

The compound `O=c1[nH]nc(-c2ccc(F)cc2)cc1O` yielded an IC50 of 6 µM.

Turning to `O=c1[nH]c(-c2cccc(-c3ccccc3)c2)ncc1O`, the IC50 is 0.4 µM. The figure for `O=c1[nH]c(-c2ccccc2-c2ccccc2)ncc1O` is 1.1 µM.

As for `O=c1[nH]cnc(-c2ccc(F)cc2)c1O`, the IC50 is > 193 µM. Take `O=c1[nH]c(-c2ccc(-c3ccccc3)cc2)ncc1O`: half-maximal inhibition (IC50) was put at 2.24 µM. The same measure for `O=c1[nH]cc(-c2ccc(F)cc2)cc1O`: 0.73 µM; for `O=c1[nH]c(-c2ccc(F)cc2)ncc1O`: 0.58 µM; for `O=c1[nH]c(-c2ccc(-c3nnn[nH]3)cc2)ncc1O`: 0.15 µM.

With `N#Cc1cccc(-c2ncc(O)c(=O)[nH]2)c1`, the IC50 was found to be 0.25 µM.

`O=c1[nH]cc(-c2ccc(F)cc2)[nH]c1=O` had an IC50 of 59 µM.

In the case of `O=c1[nH]c(-c2ccc(F)cc2)ccc1O`, the IC50 was 0.43 µM.

`O=c1[nH]nc(-c2ccc(-c3nnn[nH]3)cc2)cc1O` showed an IC50 of 3 µM.
